Results taken from patent publication US20190029970A1, “FATTY ACID CONJUGATED NANOPARTICLES AND USES THEREOF” (The Chinese University of Hong Kong, priority 2017, published 2019).

Experiment: In vitro release of curcumin by dialysis in 0.1% Tween 20 at 37° C.
Type: physicochemical
Settings: within 24 hours; free curcumin 2 mg/mL in 2-propanol
Description: The in vitro release profiles of the drug-loaded NPs were assessed in 0.1% Tween 20 at 37° C. based on a dialysis method reported earlier with modifications. Briefly, 1 mL of the NPs was added into a dialysis tube (Float-A-lyzer G2 with a membrane MWCO 3.5-5 kD, Spectrum Laboratories, Inc., Rancho Dominguez, Calif., USA), which was subsequently placed in 250 mL of 0.1% Tween 20 at 37° C. Dialysate was replaced periodically. Samples (10 μL) were withdrawn from the dialysis tube at designated time points. The samples collected were analyzed using a UPLC-UV method and GraphPad Prism 5 was employed to plot the cumulative drug release versus time. The diffusional behaviour of curcumin (2 mg/mL in isopropanol) was also determined using the same procedure, except the dialysate was replaced with isopropanol.

## COc1cc(/C=C/C(=O)CC(=O)/C=C/c2ccc(O)c(OC)c2)ccc1O [free curcumin, curcumin]
  curcumin released: > 80%
